The nature of the data set: Plasma gentamycin after oral administration to NZW rabbits. The data set is classed as in vivo. The settings on record: for Plasma concentration of gentamycin: n = 3. As for the experimental part: NZW rabbits were used in all experiments and all tablet/capsules were administered orally. The animals were given four, five or six tablets/capsules followed by water until they had swallowed the tablets/capsules. The animals were deprived of food for about 18 hours before dosing. […] The blood samples were centrifuged for 10 min at approximately 2000×g to obtain plasma for determination of gentamycin by EMIT 2000 TDM assay on a Hitachi 704 Analyzer (Table 10).
The area under the curve (AUC) was calculated by the linear trapezoidal rule to the last blood concentration. Two different doses (5 or 10 mg/kg bodyweight) were used during the experiments. For comparison of the results of the different formulations the AUC was divided by the respective dose of gentamycin. The obtained plasma concentration for pure gentamycin was set to 1. The obtained plasma concentrations for gentamycin in the three different lipid formulations were then expressed as multiple factors of increasing bioabsorption.

As for Gentamycin sulphate [Gentamycin 1], the “Correlation factor (multiple of bioabsorption, pure gentamycin = 1)” value (dose-adjusted AUC relative to Gentamycin 1) turned out to be 1. In addition, the “Plasma concentration of gentamycin” value reads like this: (oral, dose 10 mg/kg, 0 hrs) 0 microgram/mL; (oral, dose 10 mg/kg, 0.5 hrs) 0.01 microgram/mL; (oral, dose 10 mg/kg, 1 hr) 0.01 microgram/mL; (oral, dose 10 mg/kg, 2 hrs) 0.02 microgram/mL; (oral, dose 10 mg/kg, 4 hrs) 0.01 microgram/mL; (oral, dose 10 mg/kg, 6 hrs) 0.03 microgram/mL. Besides, for the setting “oral, dose 10 mg/kg, linear trapezoidal rule to last blood concentration (6 hrs)”, the AUC was found to be 0.09.
